Source: patent EP3046573B1, “AMYLIN ANALOGUES” (Zealand Pharma A/S, priority 2013, dated 2015)
Like-named read-outs stand apart in the source and are kept apart here. Numbered stars: 1 amine (or outer) side, 2 acyl side, 3 side chain; on linkers, the order of the positions; unused ones are H or OH. Bridge positions count the residues as written; N and C are the ends. Square brackets hold non-standard residues; d marks the D form. Peptide text beside a SMILES is read from it. * marks the point of attachment. C20 diacid = O=C(O)CCCCCCCCCCCCCCCCCCC(=O)*; γGlu = O=C(O)[C@H](CCC(=O)[*:2])N[*:1]; NMeI = CC[C@H](C)[C@H](NC)C(=O)O; Sar = CNCC(=O)O

Assays:
[1] = target: T1, human calcitonin receptor (hCTR2) (Homo sapiens, UniProt P30988); experiment: hCTR2 assay: induction of cAMP (AlphaScreen cAMP Assay kit) in COS7 cells expressing hCTR2; format: cell-based
T1 construct: expressed in transfected cells
T1 sequence (P30988 25-474): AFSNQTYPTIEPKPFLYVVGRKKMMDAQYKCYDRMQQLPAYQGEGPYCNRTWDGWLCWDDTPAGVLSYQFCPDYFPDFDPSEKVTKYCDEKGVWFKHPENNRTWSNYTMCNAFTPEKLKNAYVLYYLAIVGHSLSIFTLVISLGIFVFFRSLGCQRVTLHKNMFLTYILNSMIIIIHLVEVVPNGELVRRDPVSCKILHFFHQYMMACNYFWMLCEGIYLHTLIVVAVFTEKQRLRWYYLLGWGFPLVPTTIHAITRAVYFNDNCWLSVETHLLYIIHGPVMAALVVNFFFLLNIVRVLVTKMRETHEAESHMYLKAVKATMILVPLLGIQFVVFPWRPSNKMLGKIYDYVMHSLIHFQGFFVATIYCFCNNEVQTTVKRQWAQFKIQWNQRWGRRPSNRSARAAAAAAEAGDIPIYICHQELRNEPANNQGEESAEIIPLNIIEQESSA
How it was run: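 Cells were seeded one day ahead, washed, then exposed to rising peptide concentrations for 15 min at 37° C in the presence of 100 µM IBMX. After lysis for 10 min at room temperature, cAMP was quantified by AlphaScreen and EC50 values derived by 4PL fitting.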

[2] = Solubility assessment (turbidity absorbance at 325 nm); format: physicochemical; conditions: stock 2 mg/ml diluted 1:1, ambient temperature (typically 25°C), n=1; for Solubility, Acetate buffer pH 4: 100 mM acetate buffer pH 4.0; for Solubility, Acetate buffer pH 5: 100 mM acetate buffer pH 5.0; for Solubility, Histidine buffer pH 6: 100 mM histidine buffer pH 6.0; for Solubility, Histidine buffer pH 7: 100 mM histidine buffer pH 7.0; for Solubility, Phosphate buffer pH 6: 100 mM phosphate buffer pH 6.0; for Solubility, Phosphate buffer pH 7: 100 mM phosphate buffer pH 7.0; for Solubility, Phosphate buffer pH 7.5: 100 mM phosphate buffer pH7.5
How it was run: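 Turbidity read as absorbance at 325 nm (also 280 nm), single samples at ambient temperature (typically 25°C); ≤ 0.02 units counts as ≥ 1 mg/ml soluble. Samples made by 1:1 dilution of a 2 mg/ml acidic stock into 100 mM acetate, histidine or phosphate buffers, pH 4.0–7.5.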

[3] = cAMP induction in COS7 cells expressing hCTR2, average of a minimum of 3 determinations, read-out: hCTR2 EC50

| EC50 [1, 3] [nM] | Solubility, Acetate buffer pH 4 [2] | Solubility, Acetate buffer pH 5 [2] | Solubility, Histidine buffer pH 6 [2] | Solubility, Histidine buffer pH 7 [2] | Solubility, Phosphate buffer pH 6 [2] | Solubility, Phosphate buffer pH 7 [2] | Solubility, Phosphate buffer pH 7.5 [2] | SMILES | EC50 [1] [nM] |
| --- | --- | --- | --- | --- | --- | --- | --- | --- | --- |
| 0.094 | SS (SS indicates solubility ≥ 1mg/ml) | SS (SS indicates solubility ≥ 1mg/ml) | SS (SS indicates solubility ≥ 1mg/ml) | SS (SS indicates solubility ≥ 1mg/ml) | SS (SS indicates solubility ≥ 1mg/ml) | SS (SS indicates solubility ≥ 1mg/ml) | SS (SS indicates solubility ≥ 1mg/ml) | CC[C@H](C)[C@@H](C(=O)N[C@@H](CC(C)C)C(=O)N[C@@H](CO)C(=O)N[C@@H](CO)C(=O)N[C@H](C(=O)N[C@@H](CC(N)=O)C(=O)N[C@H](C(=O)NCC(=O)N[C@@H](CO)C(=O)N[C@@H](CC(N)=O)C(=O)N[C@H](C(=O)N1CCC[C@H]1C(N)=O)[C@@H](C)O)C(C)C)[C@@H](C)O)N(C)C(=O)CN(C)C(=O)[C@H](Cc1ccccc1)NC(=O)[C@H](CC(N)=O)NC(=O)[C@H](CC(N)=O)NC(=O)[C@H](CO)NC(=O)[C@H](CO)NC(=O)[C@H](Cc1c[nH]cn1)NC(=O)[C@H](Cc1c[nH]cn1)NC(=O)[C@H](CC(C)C)NC(=O)[C@H](Cc1ccccc1)NC(=O)[C@H](CCC(=O)O)NC(=O)[C@H](C)NC(=O)[C@H](CC(C)C)NC(=O)[C@H](CCCNC(=N)N)NC(=O)[C@H](CCC(N)=O)NC(=O)[C@@H](NC(=O)[C@H](C)NC(=O)[C@@H]1CSSC[C@H](NC(=O)[C@H](CCCCN)NC(=O)CC[C@H](NC(=O)CCCCCCCCCCCCCCCCCCC(=O)O)C(=O)O)C(=O)N[C@@H](CC(N)=O)C(=O)N[C@@H]([C@@H](C)O)C(=O)N[C@@H](C)C(=O)N[C@@H]([C@@H](C)O)C(=O)N1)[C@@H](C)O [Compound 20, [19CD]-isoGlu-KC()NTATC()ATQRLAEFLHHSSNNF-Gly(Me)-Ile(Me)-LSSTNVGSNTP-NH2] ({C20 diacid-γGlu}-KCNTATCATQRLAEFLHHSSNNF[Sar][NMeI]LSSTNVGSNTP-NH2; disulfide 2-7) |  |
| 0.31 | SS (SS indicates solubility ≥ 1mg/ml) | SS (SS indicates solubility ≥ 1mg/ml) | SS (SS indicates solubility ≥ 1mg/ml) | SS (SS indicates solubility ≥ 1mg/ml) | SS (SS indicates solubility ≥ 1mg/ml) | SS (SS indicates solubility ≥ 1mg/ml) | SS (SS indicates solubility ≥ 1mg/ml) | CC[C@H](C)[C@@H](C(=O)N[C@@H](CC(C)C)C(=O)N[C@@H](CO)C(=O)N[C@@H](CO)C(=O)N[C@H](C(=O)N[C@@H](CC(N)=O)C(=O)N[C@H](C(=O)NCC(=O)N[C@@H](CO)C(=O)N[C@@H](CC(N)=O)C(=O)N[C@H](C(=O)N1CCC[C@H]1C(N)=O)[C@@H](C)O)C(C)C)[C@@H](C)O)N(C)C(=O)CN(C)C(=O)[C@H](Cc1ccccc1)NC(=O)[C@H](CC(N)=O)NC(=O)[C@H](CC(N)=O)NC(=O)[C@H](CO)NC(=O)[C@H](CO)NC(=O)[C@H](Cc1c[nH]cn1)NC(=O)[C@H](CCCNC(=N)N)NC(=O)[C@H](CC(C)C)NC(=O)[C@H](Cc1ccccc1)NC(=O)[C@H](CCC(=O)O)NC(=O)[C@H](C)NC(=O)[C@H](CC(C)C)NC(=O)[C@H](CCCNC(=N)N)NC(=O)[C@H](CCC(N)=O)NC(=O)[C@@H](NC(=O)[C@H](C)NC(=O)[C@@H]1CSSC[C@H](NC(=O)[C@H](CCCNC(=N)N)NC(=O)CC[C@H](NC(=O)CCCCCCCCCCCCCCCCCCC(=O)O)C(=O)O)C(=O)N[C@@H](CC(N)=O)C(=O)N[C@@H]([C@@H](C)O)C(=O)N[C@@H](C)C(=O)N[C@@H]([C@@H](C)O)C(=O)N1)[C@@H](C)O [Compound 22, [19CD]-isoGlu-RC()NTATC()ATQRLAEFLRHSSNNF-Gly(Me)-Ile(Me)-LSSTNVGSNTP-NH2] ({C20 diacid-γGlu}-RCNTATCATQRLAEFLRHSSNNF[Sar][NMeI]LSSTNVGSNTP-NH2; disulfide 2-7) |  |
| 0.13 | SS (SS indicates solubility ≥ 1mg/ml) | SS (SS indicates solubility ≥ 1mg/ml) | SS (SS indicates solubility ≥ 1mg/ml) | SS (SS indicates solubility ≥ 1mg/ml) | SS (SS indicates solubility ≥ 1mg/ml) | SS (SS indicates solubility ≥ 1mg/ml) | SS (SS indicates solubility ≥ 1mg/ml) | CC[C@H](C)[C@@H](C(=O)N[C@@H](CC(C)C)C(=O)N[C@H](CO)C(=O)N[C@@H](CO)C(=O)N[C@H](C(=O)N[C@@H](CC(N)=O)C(=O)N[C@H](C(=O)NCC(=O)N[C@@H](CO)C(=O)N[C@@H](CC(N)=O)C(=O)N[C@H](C(=O)N1CCC[C@H]1C(N)=O)[C@@H](C)O)C(C)C)[C@@H](C)O)N(C)C(=O)CN(C)C(=O)[C@H](Cc1ccccc1)NC(=O)[C@H](CC(N)=O)NC(=O)[C@H](CC(N)=O)NC(=O)[C@H](CO)NC(=O)[C@H](CO)NC(=O)[C@H](Cc1c[nH]cn1)NC(=O)[C@H](Cc1c[nH]cn1)NC(=O)[C@H](CC(C)C)NC(=O)[C@H](Cc1ccccc1)NC(=O)[C@H](CCC(=O)O)NC(=O)[C@H](C)NC(=O)[C@H](CC(C)C)NC(=O)[C@H](CCCNC(=N)N)NC(=O)[C@H](CCC(N)=O)NC(=O)[C@@H](NC(=O)[C@H](C)NC(=O)[C@@H]1CSSC[C@H](NC(=O)[C@H](CCCNC(=N)N)NC(=O)CC[C@H](NC(=O)CCCCCCCCCCCCCCCCCCC(=O)O)C(=O)O)C(=O)N[C@@H](CC(N)=O)C(=O)N[C@@H]([C@@H](C)O)C(=O)N[C@@H](C)C(=O)N[C@@H]([C@@H](C)O)C(=O)N1)[C@@H](C)O [Compound 24, [19CD]-isoGlu-RC()NTATC()ATQRLAEFLHHSSNNF-Gly(Me)-Ile(Me)-L-DSer-STNVGSNTP-NH2] ({C20 diacid-γGlu}-RCNTATCATQRLAEFLHHSSNNF[Sar][NMeI]L[dS]STNVGSNTP-NH2; disulfide 2-7) |  |

| SMILES | EC50 [1, 3] [nM] | Solubility, Acetate buffer pH 4 [2] | Solubility, Acetate buffer pH 5 [2] | Solubility, Histidine buffer pH 6 [2] | Solubility, Histidine buffer pH 7 [2] | Solubility, Phosphate buffer pH 6 [2] | Solubility, Phosphate buffer pH 7 [2] | Solubility, Phosphate buffer pH 7.5 [2] | EC50 [1] [nM] |
| --- | --- | --- | --- | --- | --- | --- | --- | --- | --- |
| CC[C@H](C)[C@@H](C(=O)N[C@@H](CC(C)C)C(=O)N[C@@H](CO)C(=O)N[C@@H](CO)C(=O)N[C@H](C(=O)N[C@@H](CC(N)=O)C(=O)N[C@H](C(=O)NCC(=O)N[C@@H](CO)C(=O)N[C@@H](CC(N)=O)C(=O)N[C@H](C(=O)N1CCC[C@H]1C(N)=O)[C@@H](C)O)C(C)C)[C@@H](C)O)N(C)C(=O)[C@H](C)NC(=O)CN(C)C(=O)[C@H](Cc1ccccc1)NC(=O)[C@H](CC(N)=O)NC(=O)[C@H](CC(N)=O)NC(=O)[C@H](CO)NC(=O)[C@H](CO)NC(=O)[C@H](Cc1c[nH]cn1)NC(=O)[C@H](CCCNC(=N)N)NC(=O)[C@H](CC(C)C)NC(=O)[C@H](Cc1ccccc1)NC(=O)[C@H](CCC(=O)O)NC(=O)[C@H](C)NC(=O)[C@H](CC(C)C)NC(=O)[C@H](CCCNC(=N)N)NC(=O)[C@H](CCC(N)=O)NC(=O)[C@@H](NC(=O)[C@H](C)NC(=O)[C@@H]1CSSC[C@H](NC(=O)[C@H](CCCNC(=N)N)NC(=O)CC[C@H](NC(=O)CCCCCCCCCCCCCCCCCCC(=O)O)C(=O)O)C(=O)N[C@@H](CC(N)=O)C(=O)N[C@@H]([C@@H](C)O)C(=O)N[C@@H](C)C(=O)N[C@@H]([C@@H](C)O)C(=O)N1)[C@@H](C)O [Compound 21, [19CD]-isoGlu-RC()NTATC()ATQRLAEFLRHSSNNF-Gly(Me)-A-Ile(Me)-LSSTNVGSNTP-NH2] ({C20 diacid-γGlu}-RCNTATCATQRLAEFLRHSSNNF[Sar]A[NMeI]LSSTNVGSNTP-NH2; disulfide 2-7) |  | SS (SS indicates solubility ≥ 1mg/ml) | SS (SS indicates solubility ≥ 1mg/ml) | SS (SS indicates solubility ≥ 1mg/ml) | SS (SS indicates solubility ≥ 1mg/ml) | SS (SS indicates solubility ≥ 1mg/ml) | SS (SS indicates solubility ≥ 1mg/ml) | SS (SS indicates solubility ≥ 1mg/ml) | 0.38 |
